Blank lines part the entries; values can stand above or below the sequence they belong to.
Molecular target: T1, MAL^TIR (Homo sapiens, UniProt P58753)
T1 construct: MAL (residues 79–221); 6xHis; made in house; host or cells: E. coli BL21 (DE3)
Experiment: T‐Surf phage library (P8 and P3) selection against MAL^TIR, four rounds, NGS read counts
Assay type: binding
Conditions: for P3_MAL Rank (after) / P3_MAL Rank (before): P3 library; for P8_MAL Rank (after) / P8_MAL Rank (before): P8 library; for Population: 4th round of selection against MAL TIR, share of NGS reads
Method: T‐Surf libraries were screened against the immobilized TIR domains of two major human TLR adaptor proteins, MAL^TIR and MyD88^TIR, allowing cross‐species selection of TIR‐binding motifs with 190 946 TIR‐derived peptides in a single binding assay (Scheme 1). Enriched phage pools from the fourth round of selection were analyzed using NGS after barcoding the peptide‐coding regions of the phage pools.
Phage display screening was performed by coating two wells of a 96‐well plate (Maxisorp, Thermo Fisher Scientific) with 100 µL of 5 µg mL^−1 TIR domains overnight; then, the coated wells were blocked with 200 µL of blocking buffer (0.2% BSA in PBS) and set aside for 1 h at 4 °C with gentle shaking. Next, 100 µL of the phage library was added to the wells and incubated for 1 h at room temperature (RT; 20 – 22 °C) with gentle shaking. The plate was washed four times with PBS containing 0.5% Tween‐20; the bound phages were eluted by adding 100 µL of 100 mM HCl to each well. The elute was neutralized with 10 µL of 1.0 M Tris‐HCl (pH 11.0). E. coli TG1 cells were grown to the log phase (A600 = ≈0.6), and 1 mL of the culture was incubated with 100 µL of the eluted phages for 30 min at 37 °C, with shaking at 200 rpm. Next, 1 µL of M13KO7 helper phages was added, followed by incubation for 45 min at 37 °C, with shaking. Subsequently, the cells were transferred to 25 mL of 2× yeast extract tryptone/carbenicillin/kanamycin medium and incubated overnight at 37 °C with shaking at 200 rpm. The amplified phages were precipitated with 20% PEG‐8000/2.5 M NaCl to be used for the next round of selection.
The naïve T‐Surf libraries in P8 and P3 and the enriched phage pools after four rounds were barcoded for NGS as previously described.^[ [59] ^] Briefly, 5 µL of the phage pool was used as a template for 20 cycles of a 50 µL PCR reaction using […] each of forward and reverse barcoded primers and PrimeSTAR Max DNA Polymerase. The PCR products were purified using Expin Gel SV (GeneAll). The NGS samples were quantified using qPCR, following the qPCR Quantification Protocol Guide (KAPA Library Quantification kits for Illumina Sequencing Platform), and qualified using the TapeStation High Sensitivity D1000 ScreenTape (Agilent Technologies). The indexed libraries were further sequenced by Macrogen (Seoul, Republic of Korea) using the NovaSeq platform (Illumina) with 100 bp paired‐end reads. The reads were demultiplexed by barcodes and filtered for an average Phred quality score of at least 30, followed by trimming the flanking consensus sequences using Cutadapt (version 2.3). Peptide sequence populations were analyzed according to the read counts.

[1] = P8_MAL: rank by count after grouping
[2] = P8_MAL: rank by count before grouping
[3] = selection against MAL, rank by count after grouping
[4] = selection against MAL, rank by count before grouping
[5] = selection against MAL, rank after grouping
[6] = selection against MAL, rank before grouping
[7] = 4R selection against MAL, rank after grouping
[8] = 4R selection against MAL, rank before grouping
[9] = selection against MAL TIR, rank by count after grouping
[10] = selection against MAL TIR, rank by count before grouping
[11] = P3_MAL: rank by count after grouping
[12] = P3_MAL: rank by count before grouping
[13] = P3_MAL pool: P3 T-Surf phage library
[14] = P8_MAL pool: P8 T-Surf phage library

T1 sequence (P58753 79-221): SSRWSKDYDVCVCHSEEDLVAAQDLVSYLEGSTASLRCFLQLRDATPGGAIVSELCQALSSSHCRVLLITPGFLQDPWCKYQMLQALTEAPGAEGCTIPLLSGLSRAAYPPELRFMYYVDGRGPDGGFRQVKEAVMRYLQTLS

Sequence: EFVLTFVINLTPRTSF
P8_MAL Rank (after) [5]: 576
P8_MAL Rank (before) [6]: 2041

Sequence: SFFWSKLSYHLPAPQH
P3_MAL Rank (after) [5]: 559
P3_MAL Rank (before) [6]: 2991

Sequence: WLYVRLVSLILRDTKV
Rank (after) [1]: 144
Rank (before) [2]: 1392

Sequence: PNLSNKVMNYLMRTQT
P3_MAL Rank (after) [7]: 634
P3_MAL Rank (before) [8]: 2753

Sequence: LFFWDSLKQLLRSAGR
P8_MAL Rank (after) [5]: 564
P8_MAL Rank (before) [6]: 2069

Sequence: KRFEDRMNKVLEWKAA
P8_MAL Rank (after) [3]: 698
P8_MAL Rank (before) [4]: 2674

Sequence: SLRKNLVRNLIEEFNR
P3_MAL Rank (after) [3]: 759
P3_MAL Rank (before) [4]: 3094

Sequence: DPQDLQWFYERLVSLI
Rank (after) [1]: 447
Rank (before) [2]: 1990

Sequence: TFLGHLYIALVQTGIH
P8_MAL Rank (after) [9]: 261
P8_MAL Rank (before) [10]: 2558

Sequence: YAFTGHLHRYLVQRGVHGGD
P3_MAL Rank (after) [5]: 560
P3_MAL Rank (before) [6]: 1396

Sequence: RNYVAYLFQALASKGI
Rank (after) [1]: 407
Rank (before) [2]: 2249

Sequence: YAFTGYLHRYVVQRGV
P3_MAL Rank (after) [5]: 519
P3_MAL Rank (before) [6]: 1355

Sequence: RGFLSHLRHPVHPKDH
P3_MAL Rank (after) [7]: 615
P3_MAL Rank (before) [8]: 2367

Sequence: WFYERLVSLLMRDTKV
Rank (after) [1]: 152
Rank (before) [2]: 1193

Sequence: NQWRNALTATANLSGL
P3_MAL Rank (after) [7]: 604
P3_MAL Rank (before) [8]: 3390

Sequence: LFYEESLKQLLRANDR
P8_MAL Rank (after) [9]: 276
P8_MAL Rank (before) [10]: 1101

Sequence: SAAYDDFWDRLIRMIE
Rank (after) [1]: 173
Rank (before) [2]: 1007

Sequence: YALTGQLHRYLVQRGV
Rank (after) [11]: 151
Rank (before) [12]: 1485

Sequence: NQWRNALTAEANLSGW
Population [13]: 0.00413%

Sequence: YAFTSHLYDRLPAPQH
P3_MAL Rank (after) [5]: 554
P3_MAL Rank (before) [6]: 1469

Sequence: PNLRTKVLNYLFRTNT
P3_MAL Rank (after) [9]: 237
P3_MAL Rank (before) [10]: 2711

Sequence: SSFREGLWRLLDLSKQ
P3_MAL Rank (after) [3]: 732
P3_MAL Rank (before) [4]: 3144

Sequence: LKAESWRQAPEKAGKL
P3_MAL Rank (after) [9]: 259
P3_MAL Rank (before) [10]: 2306

Sequence: AFLYLSDQSDPSDQF
P8_MAL Rank (after) [9]: 237
P8_MAL Rank (before) [10]: 1915

Sequence: AFLYTFLINLTHPQF
P8_MAL Rank (after) [9]: 275
P8_MAL Rank (before) [10]: 1852

Sequence: SAFVAPLSEALNQRAL
P3_MAL Rank (after) [7]: 675
P3_MAL Rank (before) [8]: 2980

Sequence: DDAVWVYEHLVKFLEG
P8_MAL Rank (after) [7]: 617
P8_MAL Rank (before) [8]: 1988

Sequence: AFLYTFLINLTHLPNF
Rank (after) [1]: 95
Rank (before) [2]: 1842

Sequence: DIQSSRLKDDADLVGQ
P3_MAL Rank (after) [7]: 655
P3_MAL Rank (before) [8]: 1960

Sequence: RNFVAYLVQALAKKGI
Rank (after) [1]: 160
Rank (before) [2]: 2225

Sequence: PEKDNGGANAFSNNIV
P3_MAL Rank (after) [9]: 200
P3_MAL Rank (before) [10]: 2645

Sequence: WFLEQLEKILEAHGTT
P8_MAL Rank (after) [3]: 715
P8_MAL Rank (before) [4]: 1353

Sequence: YFLHFLLFSRPETEYI
Rank (after) [11]: 386
Rank (before) [12]: 1336

Sequence: QFFWDQLKSILGDTRF
P8_MAL Rank (after) [5]: 519
P8_MAL Rank (before) [6]: 2433

Sequence: VEPTQVRKQRCGGKC
P3_MAL Rank (after) [3]: 760
P3_MAL Rank (before) [4]: 1661

Sequence: GFFERLVRMILRDTKV
P8_MAL Rank (after) [9]: 263
P8_MAL Rank (before) [10]: 1567

Sequence: SSFRKGLCRLLELSKK
Rank (after) [11]: 463
Rank (before) [12]: 3196

Sequence: NQWRNALTAAASLSGR
P3_MAL Rank (after) [9]: 221
P3_MAL Rank (before) [10]: 3364

Sequence: SSFCEGLWRLLELSTK
P3_MAL Rank (after) [9]: 234
P3_MAL Rank (before) [10]: 3122

Sequence: YAFTCHLHRYLVQRGV
Population [13]: 0.00413%

Sequence: TFLGPQYNALVQAGTH
P8_MAL Rank (after) [5]: 484
P8_MAL Rank (before) [6]: 2554

Sequence: RLLNGKKRCISFIAG
P3_MAL Rank (after) [9]: 261
P3_MAL Rank (before) [10]: 2475

Sequence: LVAHGISNKLKIFATI
Rank (after) [11]: 387
Rank (before) [12]: 2092

Now from value to sequence:

Rank (after) [1]: 134
Rank (before) [2]: 1827
Sequence: AFLYTFLVNLTHPPNF

Rank (after) [1]: 180
Rank (before) [2]: 2633
Sequence: TFPGHLYNALVQAGIL

P3_MAL Rank (after) [3]: 771
P3_MAL Rank (before) [4]: 2208
Sequence: LKWGDPYFLEQTALCD

Rank (after) [11]: 405
Rank (before) [12]: 2706
Sequence: PNLRTKVLHHLMRTKP

P3_MAL Rank (after) [3]: 682
P3_MAL Rank (before) [4]: 1882
Sequence: DWFLSKLSQHLLKRAK

P3_MAL Rank (after) [7]: 640
P3_MAL Rank (before) [8]: 2680
Sequence: PNLRTKVPNYPMLTKT

P8_MAL Rank (after) [7]: 645
P8_MAL Rank (before) [8]: 1580
Sequence: AFFLAQLKSVMGNPTM

P3_MAL Rank (after) [9]: 247
P3_MAL Rank (before) [10]: 2742
Sequence: PNLRTKLLNYLMHTKT

Rank (after) [1]: 146
Rank (before) [2]: 1715
Sequence: AFFWPQLKSVLGNPTK

P3_MAL Rank (after) [7]: 590
P3_MAL Rank (before) [8]: 2423
Sequence: RGCLSHLRHHLHAKEH

Population [13]: 0.03%
Rank (after) [11]: 100
Rank (before) [12]: 100
Sequence: GWFLNKLSQLILKKEK

P8_MAL Rank (after) [3]: 716
P8_MAL Rank (before) [4]: 1572
Sequence: GLSWGPYEWWMGLYDA

Rank (after) [1]: 453
Rank (before) [2]: 2584
Sequence: TFLGHLYNALVQAAF

Rank (after) [1]: 139
Rank (before) [2]: 1767
Sequence: AFLYAFLNNLTHPTTF

P8_MAL Rank (after) [5]: 575
P8_MAL Rank (before) [6]: 2300
Sequence: RKGDLISDELLIAIEE

P3_MAL Rank (after) [3]: 766
P3_MAL Rank (before) [4]: 3603
Sequence: KERLHQWKLALTQAANLS

P8_MAL Rank (after) [9]: 209
P8_MAL Rank (before) [10]: 1867
Sequence: AFLYTFLNTLTHPTNF

P3_MAL Rank (after) [3]: 693
P3_MAL Rank (before) [4]: 2082
Sequence: LGFLRHLRHHLQAKDH

Rank (after) [1]: 100
Rank (before) [2]: 2072
Sequence: LFFWERLKQLLRSDCR

P3_MAL Rank (after) [5]: 552
P3_MAL Rank (before) [6]: 2430
Sequence: RGFLSHLRHYLQAKAH

P3_MAL Rank (after) [7]: 632
P3_MAL Rank (before) [8]: 1630
Sequence: VGWFLHTLCQLILQKG

P8_MAL Rank (after) [9]: 271
P8_MAL Rank (before) [10]: 1926
Sequence: ALCWAQLKIVLANLPI

Population [14]: 0.0034%
Sequence: RSFVAYLFQALANKGI

P8_MAL Rank (after) [9]: 224
P8_MAL Rank (before) [10]: 2143
Sequence: LFLWDSLKQPLRSDGR

Rank (after) [11]: 175
Rank (before) [12]: 2692
Sequence: PNLRTNVMNYLMRTKT

Rank (after) [1]: 186
Rank (before) [2]: 1639
Sequence: AFFWAQLKSGLGNPTK

Rank (after) [1]: 430
Rank (before) [2]: 1777
Sequence: AFLGTAAYRAGQTDD

P8_MAL Rank (after) [7]: 594
P8_MAL Rank (before) [8]: 1929
Sequence: ALLYTFLIHLTHPTNS

Rank (after) [1]: 441
Rank (before) [2]: 2482
Sequence: SEFIQKIILWMNQQIV

Population [14]: 0.0034%
Sequence: AFLYTFLINLTHPTTF

Rank (after) [1]: 171
Rank (before) [2]: 2486
Sequence: SEFIQKISLWMNAKIV

P8_MAL Rank (after) [5]: 529
P8_MAL Rank (before) [6]: 1657
Sequence: AFFWAHLRTVLGKPTI

Population [13]: 0.00488%
Sequence: RGFLSHLRHHLQAIDH

P8_MAL Rank (after) [9]: 250
P8_MAL Rank (before) [10]: 1179
Sequence: WFYERLVILVLRDTKG

P8_MAL Rank (after) [5]: 546
P8_MAL Rank (before) [6]: 2337
Sequence: HQAFWDRLWAKLKAPI

P8_MAL Rank (after) [3]: 686
P8_MAL Rank (before) [4]: 1786
Sequence: AFYWAQLKIVLGNPTM

Rank (after) [11]: 178
Rank (before) [12]: 3204
Sequence: SSLREVLWRLLELSKK

P8_MAL Rank (after) [9]: 193
P8_MAL Rank (before) [10]: 2118
Sequence: LFFWESLKQRLRSDVR

P3_MAL Rank (after) [9]: 283
P3_MAL Rank (before) [10]: 894
Sequence: RGFLSKLSQHILKREK

Rank (after) [1]: 176
Rank (before) [2]: 1248
Sequence: WFYERLLSLVLRDTKV
